We go through two molecules from patent US7528151B2, “Heterocyclic urea derivatives for the treatment of pain” (Glaxo Group Limited, priority 2003, dated 2009).

In the experiment the target is T1, human VR1 (Homo sapiens, UniProt Q8NER1).
T1 construct: expressed in transfected cells
Nature of the experiment: FLIPR based calcium assay, capsaicin-induced response in 1321N1 cells stably expressing human VR1. In kind it is cell-based. To be noted: antagonism of capsaicin response; pKb generated from IC50 using the Cheng-Prusoff equation. The method, then: Transfected astrocytoma 1321N1 cells, stably expressing human VR1, were seeded into FLIPR plates at 25,000cells/well (96-well plate) and cultured overnight. The cells were subsequently loaded in medium containing 4 μM Fluo-3 AM (Molecular Probes) for 2 hours, at room temperature, in the dark. The plates were then washed 4 times with Tyrode containing 1.5 mM calcium, without probenecid. The cells were pre-incubated with compound or buffer control at room temperature for 30 minutes. Capsaicin (Sigma) was then added to the cells. Compounds having antagonist activity against the human VR1 were identified by detecting differences in fluorescence when measured after capsaicin addition, compared with no compound buffer controls.

Counter-ions that a name gives are not always drawn.

T1 sequence (Q8NER1 whole entry): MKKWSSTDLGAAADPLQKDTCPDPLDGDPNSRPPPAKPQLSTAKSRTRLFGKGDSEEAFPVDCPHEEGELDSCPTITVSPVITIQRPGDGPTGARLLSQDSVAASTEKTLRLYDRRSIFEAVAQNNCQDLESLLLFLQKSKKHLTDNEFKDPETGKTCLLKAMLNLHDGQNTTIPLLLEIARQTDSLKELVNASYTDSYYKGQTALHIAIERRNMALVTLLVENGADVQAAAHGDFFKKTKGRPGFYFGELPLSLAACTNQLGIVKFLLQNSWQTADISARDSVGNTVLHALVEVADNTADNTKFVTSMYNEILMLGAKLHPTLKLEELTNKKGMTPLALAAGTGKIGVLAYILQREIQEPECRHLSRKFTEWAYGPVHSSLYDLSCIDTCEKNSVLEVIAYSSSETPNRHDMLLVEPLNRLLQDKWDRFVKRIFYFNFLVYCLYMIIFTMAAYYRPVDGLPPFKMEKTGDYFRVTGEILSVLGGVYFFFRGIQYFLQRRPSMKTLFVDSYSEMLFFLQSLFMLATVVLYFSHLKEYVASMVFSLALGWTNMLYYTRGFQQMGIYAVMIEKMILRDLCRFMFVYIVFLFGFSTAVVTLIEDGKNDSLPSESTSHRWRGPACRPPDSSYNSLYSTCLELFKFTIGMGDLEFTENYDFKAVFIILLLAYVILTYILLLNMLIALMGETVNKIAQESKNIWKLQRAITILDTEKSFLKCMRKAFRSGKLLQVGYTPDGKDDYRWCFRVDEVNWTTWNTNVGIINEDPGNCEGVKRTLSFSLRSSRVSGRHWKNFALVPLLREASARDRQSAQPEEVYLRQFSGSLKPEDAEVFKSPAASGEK

`Cc1nccc2c(NC(=O)NC3CCN(c4ncc(C(F)(F)F)cc4Cl)CC3)cccc12` [Example 1, 1-([3-Chloro-5-trifluoromethylpyridinyl-2-yl]piperidin-4-yl)-3-(1-methyl-isoquinolin-5-yl)-urea hydrochloride]: the Kb is under 100 nM.

`COc1nc(N2CCC(NC(=O)Nc3cccc4c(C)nccc34)CC2)ccc1C(F)(F)F` [Example 2, 1-([6-Methoxy-5-trifluoromethylpyridinyl-2-yl]piperidin-4-yl)-3-(1-methyl-isoquinolin-5-yl)-urea hydrochloride]: the Kb was under 100 nM.
